Laboratory results taken from patent US20090098115A1, “Cell lines and animal models of HER2 expressing tumors” (priority 2006, published 2009).

Legend:
BT-474 cells = assay: In vitro cell proliferation assay (Cell Titer-Glo), BT-474; type: cell-based, human; conditions: BT-474, 0.0001 ug/ml to 10 ug/ml, 72 h (FIGS. 7A, 8A)
Method: (§1) BT-474 and BT-474EE1 cells were plated in 96-well microtiter plates and incubated overnight at 37° in a humidified atmosphere of 5% CO2. […] After incubation for 72 h, Cell Titer-Glo reagent (Promega, Madison, Wis.) was added to the wells, and after a 10-min incubation at room temperature, the luminescent signal was recorded.

BT-474EEI cells = assay: In vitro cell proliferation assay (Cell Titer-Glo), BT-474EEI; type: cell-based, human; conditions: 0.0001 ug/ml to 10 ug/ml, 72 h (FIGS. 7B, 8B)
Method: as §1

C#Cc1cccc(Nc2ncnc3cc(OCCOC)c(OCCOC)cc23)c1 [Tarceva, Erlotinib]
cell proliferation (BT-474 cells): decreased with high doses | cell proliferation (BT-474EEI cells): reduced at high concentrations
